Assay results from US12617765B2, “Cannabinoid derivatives” (CANOPY GROWTH CORPORATION, priority 2019, dated 2026).
Read-outs that look alike come from different tables or passages of the source.

Columns and labels:
human CB1 receptor = molecular target: T1, human CB1 receptor (Homo sapiens, UniProt P21554); assay: CB1 radioligand competitive binding assay ([3H]CP 55,940 displacement)
T1 construct: host or cells: CHO-K1

human CB2 receptor = molecular target: T2, human CB2 receptor (Homo sapiens, UniProt P34972); assay: CB2 radioligand competitive binding assay ([3H]CP 55,940 displacement); conditions: for Selectivity CB2: fold difference in selectivity between CB1 and CB2 binding, in the column of the receptor with the higher binding affinity
T2 construct: host or cells: CHO-K1
T2 sequence (P34972 whole entry): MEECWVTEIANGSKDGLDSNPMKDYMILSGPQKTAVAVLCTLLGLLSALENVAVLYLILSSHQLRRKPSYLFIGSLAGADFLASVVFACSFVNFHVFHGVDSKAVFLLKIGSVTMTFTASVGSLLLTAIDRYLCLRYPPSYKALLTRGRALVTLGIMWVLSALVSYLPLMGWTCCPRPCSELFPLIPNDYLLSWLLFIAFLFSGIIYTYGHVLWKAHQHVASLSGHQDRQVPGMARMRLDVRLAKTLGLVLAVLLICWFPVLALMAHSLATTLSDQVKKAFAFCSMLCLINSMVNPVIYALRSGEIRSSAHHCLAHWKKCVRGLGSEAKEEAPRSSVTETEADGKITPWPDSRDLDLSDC
Description: Compounds of the present disclosure were tested for CB1 receptor binding affinity and for CB2 receptor binding affinity. As used herein, “binding affinity” is represented by the IC50 value, which was experimentally determined as described herein. The lower the IC50 value the higher the binding affinity. A compound of the present disclosure may be said to have “binding selectivity” if it has a higher binding affinity for one receptor compared to the other.
The membranes were prepared from CHO-K1 (Chinese hamster ovary) cells stably transfected with the human CB2 receptor (Cat. #ES-111-C; Perkin Elmer, Boston, Mass.). The cells were grown adherently and maintained in Ham's F12 medium containing 10% fetal bovine serum (FBS), penicillin, streptomycin and geneticin (G418) at 37° C. in a humid atmosphere of 5% CO2 following the manufacturer's instructions.
For membrane preparation the cells were washed with PBS and scraped off the plates in cold homogenization buffer (25 mM HEPES (pH 7.4), 2 mM EDTA) containing protease inhibitor cocktail (Sigma Cat. #P8340). The cell suspension was homogenized with a Pro-PK-01200D Polytron Homogenizer (Pro Scientific) and then centrifuged for 30 min at 120,000×g. The supernatant was discarded and the pellet was re-suspended in the homogenization buffer and stored at −80° C. until the time of use.
In this experiment, 3H radiolabeled CP 55,940, i.e. [3H]CP 55,940 (Perkin Elmer, Boston, Mass.), was used as a radioligand for the CB2 receptor to determine the binding affinity of compounds for the CB2 receptor (Scheme 5; above).
The competition binding experiments (single dose and dose-response) were performed by incubating 0.6 nM of [3H]CP55,940 (specific activity 101 Ci/mmol, Perkin Elmer) and different concentrations of compounds disclosed herein with membranes prepared as above from CHO-K1 cells expressing human CB2 receptor (1 μg of protein/well), 50 mM Tris-HCl (pH 7.4), 5 mM MgCl2, 1 mM CaCl2, and 2 mg/mL BSA.
For the single dose experiments, the compound stocks (usually 10 mM in DMSO) were diluted to working stocks in the binding buffer to give the final compound concentrations of 10 μM and 1 μM. For the dose-response experiments the test compounds were sequentially diluted to provide the desired concentration range for the IC50 determination. In each case the compounds were pre-incubated with the membrane for 20 min, before adding the radioligand.
After incubation with the radioligand for 60 min at 37° C., the incubation was terminated by rapid filtration of assay mixture through MultiScreen®HTS+96-well filter plates (Millipore, Cat. #MSFCNXB), pre-soaked for 60 min with 50 mM Tris-HCl (pH 7.4) containing 0.33% polyethylenimine (PEI). The nonspecific binding (NSB) was determined in the presence of 10 μM unlabelled CP55,940. After drying the filter plate at 50° C. for at least 60 min, the filter-bound radioactivity was determined by scintillation spectrometry using the 1450 MicroBeta Plate Counter (Perkin Elmer, Boston, Mass.). From the dose-response experiments, the IC50 values were determined (see Table 1, CB2 IC50).

[1] = 0.8 nM [3H]CP 55,940, membranes of CHO-K1 cells expressing human CB1 receptor, read-out: CB1 IC50
[2] = 0.6 nM [3H]CP55,940, membranes of CHO-K1 cells expressing human CB2 receptor, read-out: CB2 IC50

T1 sequence (P21554 whole entry): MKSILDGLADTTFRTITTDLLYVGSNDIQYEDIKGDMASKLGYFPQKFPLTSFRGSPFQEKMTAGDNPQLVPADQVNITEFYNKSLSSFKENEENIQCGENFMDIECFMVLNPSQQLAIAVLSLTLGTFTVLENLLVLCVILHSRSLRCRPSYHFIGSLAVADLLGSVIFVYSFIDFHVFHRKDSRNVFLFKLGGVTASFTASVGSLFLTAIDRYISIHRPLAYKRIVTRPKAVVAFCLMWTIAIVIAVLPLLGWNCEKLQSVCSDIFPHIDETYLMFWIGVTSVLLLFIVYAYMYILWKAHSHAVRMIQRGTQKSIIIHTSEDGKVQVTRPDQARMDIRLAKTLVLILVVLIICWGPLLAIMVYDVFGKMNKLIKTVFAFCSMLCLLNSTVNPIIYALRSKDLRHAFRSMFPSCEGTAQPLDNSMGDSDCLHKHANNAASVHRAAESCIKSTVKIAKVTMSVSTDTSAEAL

CCCCCc1cc(O)c(C/C=C(\C)CCC=C(C)C)c2c1C(=O)OCO2 [Compound 1, 8-(3,7-dimethylocta-2,6-dien-1-yl)-7-hydroxy-5-pentyl-4H-benzo[d][1,3]dioxin-4-one]
IC50 (human CB1 receptor; [1]): > 5 µM
IC50 (human CB2 receptor; [2]): 1000 to 2490 nM
Selectivity CB2 (human CB2 receptor): 4.07 fold

CCCCCc1cc(O)c(C/C=C(\C)CCC=C(C)C)c2c1C(=O)OC(c1ccccc1)O2 (stereo not drawn) [Compound 3, 8-(3,7-dimethylocta-2,6-dien-1-yl)-7-hydroxy-5-pentyl-2-phenyl-4H-benzo[d][1,3]dioxin-4-one]
IC50 (human CB1 receptor): 1 to 2.49 µM
IC50 (human CB2 receptor): 1000 to 2490 nM
Selectivity CB2 (human CB2 receptor): 1.19 fold

CCCCCc1cc(O)c(C/C=C(\C)CCC=C(C)C)c2c1C(=O)OC(C)(COC)O2 (stereo not drawn) [Compound 11, 8-(3,7-dimethylocta-2,6-dien-1-yl)-7-hydroxy-2-(methoxymethyl)-2-methyl-5-pentyl-4H-benzo[d][1,3]dioxin-4-one]
IC50 (human CB1 receptor): 2.5 to 4.99 µM
IC50 (human CB2 receptor): < 1000 nM
Selectivity CB2 (human CB2 receptor): 4.46 fold

CCCCCc1cc(O)c(C/C=C(\C)CCC=C(C)C)c2c1C(=O)OC(CC(C)=O)(c1ccccc1)O2 (stereo not drawn) [Compound 12, 8-(3,7-dimethylocta-2,6-dien-1-yl)-7-hydroxy-2-(2-oxopropyl)-5-pentyl-2-phenyl-4H-benzo[d][1,3]dioxin-4-one]
IC50 (human CB1 receptor): 2.5 to 4.99 µM
IC50 (human CB2 receptor): < 1000 nM
Selectivity CB2 (human CB2 receptor): 4.31 fold

CCCCCc1cc(O)c(C/C=C(\C)CCC=C(C)C)c2c1C(=O)OC(CC(C)=O)O2 (stereo not drawn) [Compound 14, 8-(3,7-dimethylocta-2,6-dien-1-yl)-7-hydroxy-2-(2-oxopropyl)-5-pentyl-4H-benzo[d][1,3]dioxin-4-one]
IC50 (human CB1 receptor; [1]): 2.5 to 4.99 µM
IC50 (human CB2 receptor; [2]): 1000 to 2490 nM
Selectivity CB2 (human CB2 receptor): 2.64 fold

CCCCCc1cc(O)c(C/C=C(\C)CCC=C(C)C)c2c1C(=O)OC(CC)O2 (stereo not drawn) [Compound 16, 8-(3,7-dimethylocta-2,6-dien-1-yl)-2-ethyl-7-hydroxy-5-pentyl-4H-benzo[d][1,3]dioxin-4-one]
IC50 (human CB1 receptor; [1]): 2.5 to 4.99 µM
IC50 (human CB2 receptor; [2]): 1000 to 2490 nM
Selectivity CB2 (human CB2 receptor): 2.04 fold

CCCCCc1cc(O)c(C/C=C(\C)CCC=C(C)C)c2c1C(=O)OC(CC(C)=O)(c1ccc(OC)cc1)O2 (stereo not drawn) [Compound 17, 8-(3,7-dimethylocta-2,6-dien-1-yl)-7-hydroxy-2-(4-methoxyphenyl)-2-(2-oxopropyl)-5-pentyl-4H-benzo[d][1,3]dioxin-4-one]
IC50 (human CB1 receptor; [1]): 2.5 to 4.99 µM
IC50 (human CB2 receptor; [2]): < 1000 nM
Selectivity CB2 (human CB2 receptor): 5.45 fold

CCCc1cc(O)c(C/C=C(\C)CCC=C(C)C)c2c1C(=O)OCO2 [Compound 18, 8-(3,7-dimethylocta-2,6-dien-1-yl)-7-hydroxy-5-propyl-4H-benzo[d][1,3]dioxin-4-one]
IC50 (human CB1 receptor): > 5 µM
IC50 (human CB2 receptor): 1000 to 2490 nM
Selectivity CB2 (human CB2 receptor): 3.88 fold

CCCc1cc(O)c(C/C=C(\C)CCC=C(C)C)c2c1C(=O)OC(c1ccccc1)O2 (stereo not drawn) [Compound 19, 8-(3,7-dimethylocta-2,6-dien-1-yl)-7-hydroxy-2-phenyl-5-propyl-4H-benzo[d][1,3]dioxin-4-one]
IC50 (human CB1 receptor): > 5 µM
IC50 (human CB2 receptor): 1000 to 2490 nM
Selectivity CB2 (human CB2 receptor): 3.92 fold
